Consider eleven compounds from ChEMBL document CHEMBL3596161, “Progress Toward the Development of Noscapine and Derivatives as Anticancer Agents” (J Med Chem, 2015).

Experiment [1] deals with T1, Tubulin (Homo sapiens) (UniProt P68371+Q9H4B7+P0DPH7+P68366+Q13509+Q71U36+P04350+Q3ZCM7+P07437+P68363+Q9BQE3+Q6PEY2+Q13885+Q9BVA1+Q9BUF5). Briefly: Inhibition of MAPs-rich tubulin (unknown origin) polymerization at 50 uM. It counts as protein-complex assay.
For experiment [2], the target named is Tubulin. Briefly: Binding affinity to tubulin (unknown origin). It counts as protein-complex assay, Homo sapiens.
For experiment [3], the target named is T1, Tubulin (Homo sapiens). Briefly: Inhibition of colchicine binding to tubulin (unknown origin) at 100 uM. It counts as protein-complex assay.
Experiment [4] has as its target T1, Tubulin (Homo sapiens). Briefly: Inhibition of colchicine binding to tubulin (unknown origin) at 50 uM. It counts as protein-complex assay.
Experiment [5] deals with T1, Tubulin (Homo sapiens). Put plainly: Inhibition of colchicine binding to tubulin (unknown origin) at 25 uM. It counts as protein-complex assay.
Experiment [6] can be described thus: Cytotoxicity against human Non-small cell lung cancer cell. It counts as functional, cell-based. The following applies: Cancer cell lines.
Experiment [7] relates to CCRF-CEM. Put plainly: Cell cycle arrest in human CEM cells assessed as accumulation at G2/M phase. It counts as functional.
The nature of experiment [8]: Cell cycle arrest in human CCRF-CEM/VLB100 cells assessed as accumulation at G2/M phase. It counts as functional, cell-based.
Experiment [9] deals with CCRF-CEM. Put plainly: Cell cycle arrest in human CEM cells assessed as accumulation at sub-G1 phase by measuring 2N DNA content after 72 hrs. It counts as functional.
Experiment [10] can be described thus: Cell cycle arrest in human CCRF-CEM/VLB100 cells assessed as accumulation at sub-G1 phase by measuring 2N DNA content after 72 hrs. It counts as functional, cell-based.
A short description of experiment [11]: Induction of apoptosis in human CCRF-CEM/VLB100 cells assessed as reduction of mitochondrial potential after 24 hrs. It counts as functional. Also noted: scale not given: the % may be the effect or the level left.
Experiment [12] can be described thus: Induction of apoptosis in human CCRF-CEM/VLB100 cells assessed as reduction of mitochondrial potential after 72 hrs. It counts as functional. Further details: scale not given: the % may be the effect or the level left.
In experiment [13] the test system is CCRF-CEM. Put plainly: Antitumor activity against human CEM cells xenografted in mouse assessed as reduction of tumor at 300 mg/kg/day, po administered for 26 days. It counts as functional. The following applies: 624 h, read-out: GI. On the technique in general: Xenograft models place foreign cells or tissue in a host animal.
Experiment [14] has as its system CCRF-CEM. Put plainly: Antitumor activity against human CEM cells xenografted in mouse assessed as reduction of tumor at 10 mg/kg/day, iv administered for 26 days. It counts as functional. The conditions noted are these: 624 h, read-out: GI.
Experiment [15] is described as follows: Antitumor activity against human CCRF-CEM/VLB100 cells xenografted in mouse assessed as reduction of tumor at 300 mg/kg/day, po administered for 32 days. It counts as functional. The following applies: 768 h, read-out: GI.
Experiment [16] has as its system HeLa. Put plainly: Antimitotic activity against human HeLa cells. It counts as functional, cell-based.
Experiment [17] relates to HeLa. Briefly: Cell cycle arrest in human HeLa cells assessed as accumulation at G2/M phase by measuring 4N DNA content at 6.4 uM by flow cytometry. It counts as functional. Background: In flow cytometry, cells or beads pass a laser one at a time.
The test system of experiment [18] is CCRF-CEM. Put plainly: Cytotoxicity against human CEM cells. It counts as functional, cell-based.
Experiment [19] concerns HeLa. Put plainly: Cytotoxicity against human HeLa cells. It counts as functional, cell-based.
Another experiment deals with A549. Put plainly: Cytotoxicity against human A549 cells. It counts as functional, cell-based.
The test system of a further experiment is MCF7. Put plainly: Cytotoxicity against human MCF7 cells. It counts as functional, cell-based.
A short description of experiment [20]: Cytotoxicity against human MCF-7 FLV1000 cells expressing […]. It counts as functional, cell-based.
In experiment [21] the target is Tubulin. Put plainly: Binding affinity to tubulin (unknown origin) by fluorescence assay. It counts as protein-complex assay, Homo sapiens.

Consider `COc1ccc2c(c1OCCCCS(=O)(=O)O)C(=O)O[C@@H]2[C@H]1c2c(c(Br)c3c(c2OC)OCO3)CCN1C`, for which the inhibition (as a rule, how much of the control response was suppressed) against Tubulin (Homo sapiens) [1] turned out to be 68%.

For `COc1ccc2c(c1OC)C(=O)O[C@@H]2[C@H]1c2c(c(Br)c3c(c2OC)OCO3)CCN1C`, the Kd (in general, the equilibrium constant for the complex coming apart) on Tubulin [2] worked out at 54 µM. Besides, the inhibition on Tubulin (Homo sapiens) [3] was determined as 66%; at Tubulin (Homo sapiens) [4], 40%; at Tubulin (Homo sapiens) [5] it was 23%. Also, the midpoint of inhibition in experiment [6], the IC50, lay at 4 µM. For the same compound, the Activity was found to be 45% in the experiment on CCRF-CEM [7]; 47% in experiment [8]; 57% in the experiment on CCRF-CEM [9]; 75% in experiment [10]; 49% in [11]; 99% in experiment [12]. Also, the Activity in the experiment on HeLa [17] turned out to be 51.8%. In addition, the inhibition in vivo at 300 mg/kg/day worked out at 80% with CCRF-CEM [13] and 81% in [15]. Also, the inhibition in vivo at 10 mg/kg/day in the experiment on CCRF-CEM [14] is 80%. Also, the EC50 (usually the concentration at which the effect is half-maximal) with HeLa [16] turned out to be 7.7 µM.

For `COc1cccc(CN2CCc3cc4c(c(OC)c3[C@@H]2[C@H]2OC(=O)c3c2ccc(OC)c3OC)OCO4)c1`, the IC50 – broadly, the concentration that inhibits the measured activity by half – with CCRF-CEM [18] came out at 6.7 µM; in the experiment on HeLa [19], 15.3 µM; with A549, 26.9 µM; with MCF7 it was 24.5 µM.

`COc1ccc2c(c1OC)C(=O)O[C@@H]2[C@H]1c2c(cc3c(c2OC)OCO3)CCN1Cc1cccc(Br)c1`: the concentration for half-maximal inhibition (IC50) is 7.5 µM with CCRF-CEM [18], 17.3 µM with HeLa [19], 32.1 µM in the experiment on A549 and 27.8 µM with MCF7.

On to `O=C1c2c(O)ccc(O)c2C(=O)c2c(NCCNCCO)ccc(NCCNCCO)c21` [MITOXANTRONE], for which the IC50 came to 0.026 µM in the experiment on MCF7 and 0.435 µM in experiment [20].

In the case of `COc1ccc2c(c1OC)C(=O)O[C@@H]2[C@@H]1NCCc2cc3c(c(OC)c21)OCO3`, the concentration for half-maximal inhibition (IC50) in the experiment on CCRF-CEM [18] worked out at 8.9 µM; in the experiment on HeLa [19] it was 20.9 µM; with A549 it was 41.6 µM; in the experiment on MCF7, 33.6 µM.

Consider `COc1ccc2c(c1OC)C(=O)O[C@@H]2[C@H]1c2c(cc3c(c2OC)OCO3)CCN1Cc1ccc(Br)cc1`, for which the IC50 in the experiment on CCRF-CEM [18] worked out at 9 µM; with HeLa [19] it was 21.2 µM; with A549, 42.4 µM; in the experiment with MCF7, 34.1 µM.

Consider `COc1ccc2c(c1OC)C(=O)O[C@@H]2[C@H]1c2c(c([N+](=O)[O-])c3c(c2OC)OCO3)CCN1C`, for which binding at Tubulin [21] was put at a Kd of 86 µM.

Turning to `COc1ccc(CN2CCc3cc4c(c(OC)c3[C@@H]2[C@H]2OC(=O)c3c2ccc(OC)c3OC)OCO4)cc1`, the IC50 in the experiment on CCRF-CEM [18] is 7.7 µM; in the experiment on HeLa [19] it was 17.9 µM; in the experiment with A549, 33.5 µM; in the experiment with MCF7 it was 28.7 µM.

In turn, `COc1ccc2c(c1OC)CO[C@@H]2[C@H]1c2c(c(Br)c3c(c2OC)OCO3)CCN1C` had an equilibrium dissociation constant (Kd) at Tubulin [2] of 106 µM. For the same compound, in the experiment on HeLa [16], the EC50 was 3.6 µM. Moreover, in the experiment on HeLa [17], the Activity was found to be 72.7%.

Consider `COc1ccc2c(c1OC)C(=O)O[C@@H]2[C@H]1c2c(cc3c(c2OC)OCO3)CCN1Cc1ccccc1`, for which the IC50 in the experiment on CCRF-CEM [18] was determined as 8.3 µM; in the experiment with HeLa [19], 19.4 µM; in the experiment with A549 it was 37.7 µM; in the experiment with MCF7, 31.2 µM.
